Source: patent US20240252472A1, “COMBINATIONS FOR TREATING CANCER” (Purdue Pharma L.P., priority 2023, published 2024)

Key:
MOLP-8 cells = assay: Daratumumab-mediated complement-dependent cytotoxicity (CDC) on pre-treated MM cells; type: cell-based; details: MOLP-8 pre-treated 2.5 μM 48 hours; daratumumab 0.1 or 1 μg/mL, 10% human serum, 4 hours
Procedure: ADCC, CDC and apoptosis via cross-linking To assess the effect of tinostamustine pre-treatment on cytotoxic mechanisms mediated by daratumumab, MM cell lines were first incubated in presence of tinostamustine (2.5 μM) or DMSO for 48 hours. Cells were then washed to remove tinostamustine or DMSO from the culture medium, and the corresponding cytotoxic assay (ADCC, CDC or apoptosis via cross-linking) was performed.
For the evaluation of ADCC, tinostamustine or DMSO pre-treated cells were cocultured with NK cells obtained from healthy donors in the presence of daratumumab (1 μg/ml) or the corresponding isotype control for 4 hours (ratio 1:1). Briefly, peripheral blood mononuclear cells (PBMCs) were isolated from healthy donor buffy coats by Lymphoprep density gradient centrifugation. […] In all three assays, the cytotoxic effect on MM cells was evaluated by flow cytometry with Annexin V/7AAD staining after treatment with daratumumab. […]
MM cells (MOLP-8 pre-treated with 0 or 2.5 μM EDO-S101 for 48 hours in accordance with the methods outlined above) were incubated with 0.1 μg/mL daratumumab, 1 μg/ml daratumumab, or the corresponding isotype control, for 30 minutes at 37° C. […] The percentage of dead cells was then evaluated by flow cytometry in accordance with the methods outlined above, using AnnexinV/7AAD staining.

MICB [1] = assay: MICB expression on MM patients' plasma cells ex vivo; type: cell-based, human; details: 3 out of 6 patients analyzed, 48 hours
Procedure: (§1) For surface staining, cells were incubated with the appropriate antibodies and 7AAD (Immunostep) for 15 min in the dark. Data were acquired using a FACSCalibur cytometer (BD Biosciences) and analyzed using Infinicyt™ software (Cytognos). Specifically, the expression of CD38 or ligands for NK cell activating receptors (MICA, MICB, ULBP1-3, PVR and CD112) in MM cell lines was determined on the viable cell population (7AAD-). In primary myeloma cells, the expression of CD38 was analyzed over the viable myeloma population using the panel CD138-FITC/CD56-PE/7AAD/CD38-APC, whereas MICA/B-AF488/CD56-PE/7AAD/CD38-APC panel was used to determine MICA/B expression. Normalized median fluorescence intensity (MFI) was calculated by dividing median fluorescence obtained with the specific antibody by median fluorescence of the corresponding isotype control. MFI for each treatment was expressed as a percentage relative to the control (100%, cells cultured in media with DMSO).

[2] = test system: CD38 histone H3 acetylation; assay: ChIP-qPCR of CD38 histone H3 acetylation; type: cell-based, human; details: MM.1S (similar in RPMI-8226); 2.5 μM, 48 hours; vs DMSO
Procedure: Chromatin Immunoprecipitation RPMI-8226 and MM.1S cell lines were treated with DMSO or tinostamustine (2.5 μM) for 48 hours. Then, the cells were fixed with Pierce™ fresh methanol-free formaldehyde (ThermoFisher) for 15 minutes and prepared for sonication with the truChIP Chromatin Shearing Kit (Covaris, Woburn, MA, USA), following the manufacturer's instructions and as previously described (Garcia-Gomez et al., Nat Commun 12: 421, 2021).
For ChIP-qPCR, samples were diluted 1/10, and 4 μL and specific primers (Supplementary Table 1) were used for each reaction. RT-qPCR was performed in technical triplicates for each biological replicate, using LightCycler® 480 SYBR Green Mix (Roche). The relative amount of immunoprecipitated DNA was compared to the input DNA for each condition.

MICB [3] = assay: Surface expression of NK cell activating ligands by flow cytometry; type: cell-based, human; details: 48 hours, DMSO = 100
Procedure: as §1
(§2) MM cells (JJN3, MM1.S, RPMI-8226, MOLP-8) were treated with EDO-S101 (1 and 2.5 μm) for 48 hours in accordance with the methods outlined above. After incubation, expression of several ligands for NK cell activating receptors: MICA, MICB, ULBP1, ULPB2, ULPB3, CD155 (PVR) and CD112 (Nectin-2) were measured using flow cytometry. Flow cytometry was then performed in accordance with the methods outlined above to calculate.

ULBP3 = assay: as above; type: cell-based, human; details: RPMI-8226, 48 hours, DMSO = 100
Procedure: as §1, §2

MICA = assay: as above; type: cell-based, human; details: 48 hours, DMSO = 100
Procedure: as §1, §2

ULBP2 = assay: as above; type: cell-based, human; details: 48 hours, DMSO = 100
Procedure: as §1, §2

CD112 = assay: as above; type: cell-based, human; details: RPMI-8226, 48 hours, DMSO = 100
Procedure: as §1, §2

CD155 = assay: as above; type: cell-based, human; details: 48 hours, DMSO = 100
Procedure: as §1, §2

Q: `Cn1c(CCCCCCC(=O)NO)nc2cc(N(CCCl)CCCl)ccc21` [EDO-S101, 7-(5-(bis(2-chloroethyl)amino)-1-methyl-1H-benzo[d]imidazol-2-yl)-N-hydroxyheptanamide] was tested. Which “daratumumab mediated CDC” value (MOLP-8 cells) did it give?
A: The value was “enhanced”.

Q: And the “increase of MICB expression after treatment, patient cells” value (MICB [1])?
A: Its value is “more than 1.5 fold”.

Q: What about the “CD38 histone H3 acetylation levels” value [2] of the same compound?
A: Its value is “elevated”.

Q: And the “Normalized MFI MICB” value (MICB [3]; JJN3, EDO-S101 1 μM)?
A: The value was 137.6 ± 14%.

Q: And the “Normalized MFI MICB” value (MICB [3]; JJN3, EDO-S101 2.5 μM)?
A: The value was 144.9 ± 28%.

Q: And the “Normalized MFI MICB” value (MICB [3]; MM1.S, EDO-S101 1 μM)?
A: The value was 113.8 ± 7.6%.

Q: What about the “Normalized MFI MICB” value (MICB [3]; MM1.S, EDO-S101 2.5 μM) of the same compound?
A: Its value is 113.4 ± 3.3%.

Q: What about the “Normalized MFI MICB” value (MICB [3]; MOLP-8, EDO-S101 1 μM) of the same compound?
A: Its value is 107.8 ± 0.5%.

Q: What about the “Normalized MFI MICB” value (MICB [3]; MOLP-8, EDO-S101 2.5 μM) of the same compound?
A: The value was 119.3 ± 7.7%.

Q: And the “Normalized MFI MICB” value (MICB [3]; RPMI-8226, EDO-S101 1 μM)?
A: Its value is 107.1 ± 6.6%.

Q: And the “Normalized MFI MICB” value (MICB [3]; RPMI-8226, EDO-S101 2.5 μM)?
A: The value was 131.3 ± 9.4%.

Q: And the “Normalized MFI ULBP3” value (ULBP3; EDO-S101 1 μM)?
A: The value was 111.7 ± 14.8%.

Q: And the “Normalized MFI ULBP3” value (ULBP3; EDO-S101 2.5 μM)?
A: Its value is 129.6 ± 20.2%.

Q: What about the “Normalized MFI MICA” value (MICA; JJN3, EDO-S101 1 μM) of the same compound?
A: Its value is 162.9 ± 11.8%.

Q: And the “Normalized MFI MICA” value (MICA; JJN3, EDO-S101 2.5 μM)?
A: Its value is 168.8 ± 10.3%.

Q: What about the “Normalized MFI MICA” value (MICA; MM1.S, EDO-S101 1 μM) of the same compound?
A: Its value is 131.9 ± 37.6%.

Q: What about the “Normalized MFI MICA” value (MICA; MM1.S, EDO-S101 2.5 μM) of the same compound?
A: Its value is 128 ± 38.2%.

Q: And the “Normalized MFI MICA” value (MICA; MOLP-8, EDO-S101 1 μM)?
A: Its value is 112.9 ± 5.7%.

Q: And the “Normalized MFI MICA” value (MICA; MOLP-8, EDO-S101 2.5 μM)?
A: The value was 131.7 ± 13.4%.

Q: What about the “Normalized MFI MICA” value (MICA; RPMI-8226, EDO-S101 1 μM) of the same compound?
A: Its value is 121.3 ± 5.9%.

Q: And the “Normalized MFI MICA” value (MICA; RPMI-8226, EDO-S101 2.5 μM)?
A: Its value is 153.6 ± 16.1%.

Q: What about the “Normalized MFI ULBP2” value (ULBP2; JJN3, EDO-S101 1 μM) of the same compound?
A: Its value is 110.5 ± 9.5%.

Q: And the “Normalized MFI ULBP2” value (ULBP2; JJN3, EDO-S101 2.5 μM)?
A: The value was 112.9 ± 13.4%.

Q: What about the “Normalized MFI ULBP2” value (ULBP2; MM1.S, EDO-S101 1 μM) of the same compound?
A: Its value is 95.8 ± 4.5%.

Q: And the “Normalized MFI ULBP2” value (ULBP2; MM1.S, EDO-S101 2.5 μM)?
A: The value was 96.3 ± 12.3%.

Q: What about the “Normalized MFI ULBP2” value (ULBP2; MOLP-8, EDO-S101 1 μM) of the same compound?
A: The value was 116.1 ± 4.6%.

Q: And the “Normalized MFI ULBP2” value (ULBP2; MOLP-8, EDO-S101 2.5 μM)?
A: The value was 124.7 ± 13.5%.

Q: What about the “Normalized MFI CD112” value (CD112; EDO-S101 1 μM) of the same compound?
A: The value was 116.6 ± 13.2%.

Q: And the “Normalized MFI CD112” value (CD112; EDO-S101 2.5 μM)?
A: The value was 142.8 ± 11.5%.

Q: And the “Normalized MFI CD155” value (CD155; JJN3, EDO-S101 1 μM)?
A: The value was 161.4 ± 14.3%.

Q: What about the “Normalized MFI CD155” value (CD155; JJN3, EDO-S101 2.5 μM) of the same compound?
A: The value was 156.8 ± 24.7%.

Q: And the “Normalized MFI CD155” value (CD155; MM1.S, EDO-S101 1 μM)?
A: The value was 113.3 ± 3.9%.

Q: And the “Normalized MFI CD155” value (CD155; MM1.S, EDO-S101 2.5 μM)?
A: The value was 111.5 ± 15.3%.

Q: What about the “Normalized MFI CD155” value (CD155; RPMI-8226, EDO-S101 1 μM) of the same compound?
A: Its value is 123.9 ± 6.1%.

Q: What about the “Normalized MFI CD155” value (CD155; RPMI-8226, EDO-S101 2.5 μM) of the same compound?
A: Its value is 168.2 ± 24.8%.
